Converted amounts (≈) assume the structure as drawn. Structures can show the parent of a compound that is named as a salt. Marks after values point to notes of the source that are not given here.
How the values were obtained:
[1] = Solubility in deionized water at 25° C.; assay type: physicochemical; conditions: 72 h equilibration; for solubility at 72 h: thermodynamic from solid, read-out: Solubility (mg/mL) in deionized water
Description: The resulting mixture was vortexed for 10 min and then mechanically shaken in a thermostatic bath shaker (100 rpm) for 72 h to attain equilibrium. Next, the mixture was filtered through a 0.45 μm membrane filter (Millipore®, cellulose acetate) and an aliquot was diluted with an appropriate amount of water and analyzed for the aminoacid ester prodrug content spectrophotometrically at 210 nm. All of the manipulations were made without removal of the test tubes from the water bath, using thermostated pipettes, syringes, and buffer solutions. In Table II, as shown below, solubility data is compared with the data previously determined for propofol derivatives 2a-c (Trapani G. Latrofa A, Franco M, Lopedota A, Maciocco E, Liso G. 1998. Water-soluble salts of amino acid esters of the anesthetic agent propofol. Int. J. Pharm. 175: 195-204.).

GABAA receptor = assay: In vitro [35S]TBPS binding assay, unwashed rat cortical membranes; conditions: for IC50: unwashed rat brain (cortical) membranes
Description: The data is expressed as a percentage of binding measured in the presence of solvent and are means of two experiments.
Rats were killed by decapitation and their brains rapidly removed on ice. The cerebral cortex was dissected out and homogenized in 50 volumes of ice-cold 50 mM Tris-citrate buffer (pH 7.4 at 25° C.) containing 100 mM CaCl2 using a Polytron PT 10 (setting 5, for 20 sec) and centrifuged at 20.000×g for 20 min. The resulting pellet was resuspended in 50 volumes of 50 mM Tris-citrate buffer (pH 7.4 at 25° C.) and used for the assay. [^35S]TBPS binding was determined in a final volume of 500 μL consisting of. 200 μL of tissue homogenate (0.20-0.25 mg protein), 50 μL of [^35S]TBPS (final assay concentration of 1 nM), 50 μl 2 M NaCl, 50 μL of drugs or solvent and buffer to volume. Incubations (25° C.) were initiated by addition of tissue and terminated 90 min later by a rapid filtration through glass-fiber filter strips (Whatman GF/B, Clifton, N.J.), which were rinsed twice with a 4 mL portion of ice-cold Tris-citrate buffer using a Cell Harvester filtration manifold (model M-24m Brandel, Gaithersburg, Md.). Filter bound radioactivity was quantitated by liquid scintillation spectrometry. […] Protein content was determined by the method of Lowry^20 using bovine serum albumin as a standard.

righting reflex = assay: Anesthetic activity: loss of righting reflex; assay type: in vivo, rat; conditions: rats, i.p.; propofol and Diprivan 60 mg/kg, 6a 105 mg/kg (equimolar); mean ± s.e.m.
Description: The loss and reestablishment of righting responses, time of anesthesia induction, and sleeping time were also assessed. Rats (five per group) were treated with propofol and Diprivan®, both at a dose of 60 mg/kg, and an equimolar dose of compound 6a (105 mg/kg) and were continuously monitored for the loss of righting reflex (onset and duration). Propofol and its derivative 6a were dissolved in saline with a drop of Tween 80 per 5 mL and administered intraperitoneally in a volume of 0.3 mL per 100 g of body mass. Anesthesia induction (sleep onset) was defined as the time from drug administration to loss of righting reflex, whereas the sleeping time was the time from the loss of the righting reflex until the animals were plantigrade on all four legs. The significance of differences in behavioral data were analyzed by the ANOVA test.

[2] = test system: pentylenetetrazole-induced seizures; assay: Anticonvulsant activity against pentylenetetrazole-induced seizures; assay type: in vivo, rat; conditions: for Anticonvulsant activity, No. of rats protected/tested: pentylenetetrazole 55 mg/kg i.p.
Description: The anticonvulsant activity against pentylenetetrazole-induced seizures (55 mg/kg) was measured.

[3] = Hydrolysis in phosphate buffer containing 50% rat serum at 37° C.; assay type: in vitro ADME; conditions: for half-life: 50% rat serum in phosphate buffer, 50% rat serum in pH 7.4 phosphate buffer, read-out: Half-lives at 37° C., 50% rat serum (converted); for Cleaved quantitatively to the parent drug in rat serum: rat serum solution
Description: Each reaction were initiated by adding 100 μL of the methanolic stock solution of compound under examination to 1.6 mL of preheated serum solution (final concentration about 1×10^−3 M) and the mixture was maintained in water bath at 37° C. At appropriate times, 100 μL samples were withdrawn and added to 500 μL of cold acetonitrile in order to deproteinize the serum. After mixing and centrifugation (10 min at 4000 rpm), 20 μL of the clear supematant were filtered through 0.2 μm membrane filter (Waters, PTFE 0.2 μm) and analyzed by HPLC.

[4] = Chemical hydrolysis in 0.05 M phosphate buffers at 37° C.; assay type: physicochemical; conditions: phosphate buffer, pH 7.4, 0.05 M phosphate buffer pH 7.4, 37° C.; for half-life: read-out: Half-lives at 37° C., pH 7.4 buffer (converted)
Description: The hydrolysis of the propofol esters 6a-d was studied in aqueous buffer solutions (0.05 M phosphate buffers; ionic strength of 0.5 maintained by adding a calculated amount of KCl) at pH values of 4, 6, and 7.4 and temperature of 37±0.2° C. The reactions were initiated by adding 100 μl of a stock solution of the ester (13 mg/mL methanol) to 20 mL of the buffer solution preheated at 37° C., in screw-capped test tubes (final concentration about 2.0×10^−4 M). The solutions were kept in a water bath at a constant temperature, and at appropriate intervals aliquots of 20 μL were withdrawn and analyzed by HPLC. Pseudo-first-order rate constants for the hydrolysis were determined from the slopes of linear plots of the logarithm of residual propofol ester against time.
The kinetics of hydrolysis of the derivatives 6a-d were determined in 0.05 M phosphate buffers at pHs 4.0, 6.0 and 7.4 at 37° C. as well as in rat serum solution and in the presence of porcine liver esterase.

[5] = target: T1, human α1β2γ2 GABAA receptors (Homo sapiens, UniProt P14867+P18507+P47870); assay: Voltage-clamp electrophysiology in Xenopus laevis oocytes; assay type: cell-based; conditions: GABA EC20 (2-10 μM); for Effect on GABA-evoked chloride currents: concentration-dependent
T1 construct: expressed in transfected cells; host or cells: Xenopus laevis oocytes (nuclear injection of cDNAs in pCDM8)
T1 sequence (P14867 28-456): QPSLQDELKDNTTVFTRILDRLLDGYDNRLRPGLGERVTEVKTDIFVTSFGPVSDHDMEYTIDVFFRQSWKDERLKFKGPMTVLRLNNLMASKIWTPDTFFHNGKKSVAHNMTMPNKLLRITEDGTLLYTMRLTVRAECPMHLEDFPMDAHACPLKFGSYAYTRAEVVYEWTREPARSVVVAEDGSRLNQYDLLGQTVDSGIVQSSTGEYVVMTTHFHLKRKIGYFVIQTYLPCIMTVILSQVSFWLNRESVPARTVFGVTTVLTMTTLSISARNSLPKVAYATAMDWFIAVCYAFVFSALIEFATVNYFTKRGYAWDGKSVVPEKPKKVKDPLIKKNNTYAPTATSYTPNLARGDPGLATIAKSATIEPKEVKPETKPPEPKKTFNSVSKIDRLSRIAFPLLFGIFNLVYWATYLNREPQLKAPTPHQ
T1 sequence (P47870 25-512 limits assumed): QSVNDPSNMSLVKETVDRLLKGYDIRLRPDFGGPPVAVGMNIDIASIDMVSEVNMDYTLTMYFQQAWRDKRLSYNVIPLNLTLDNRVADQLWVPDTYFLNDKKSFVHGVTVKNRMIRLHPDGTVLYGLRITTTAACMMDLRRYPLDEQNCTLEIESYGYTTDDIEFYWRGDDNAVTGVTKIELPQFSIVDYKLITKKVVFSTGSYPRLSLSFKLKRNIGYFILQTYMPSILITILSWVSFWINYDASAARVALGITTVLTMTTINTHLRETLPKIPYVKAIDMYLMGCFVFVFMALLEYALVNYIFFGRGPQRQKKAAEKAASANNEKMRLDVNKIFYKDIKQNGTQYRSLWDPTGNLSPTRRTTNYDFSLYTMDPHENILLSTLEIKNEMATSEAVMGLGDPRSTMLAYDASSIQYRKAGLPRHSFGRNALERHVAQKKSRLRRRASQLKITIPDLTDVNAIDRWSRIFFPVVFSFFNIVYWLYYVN
T1 sequence (P18507 40-475): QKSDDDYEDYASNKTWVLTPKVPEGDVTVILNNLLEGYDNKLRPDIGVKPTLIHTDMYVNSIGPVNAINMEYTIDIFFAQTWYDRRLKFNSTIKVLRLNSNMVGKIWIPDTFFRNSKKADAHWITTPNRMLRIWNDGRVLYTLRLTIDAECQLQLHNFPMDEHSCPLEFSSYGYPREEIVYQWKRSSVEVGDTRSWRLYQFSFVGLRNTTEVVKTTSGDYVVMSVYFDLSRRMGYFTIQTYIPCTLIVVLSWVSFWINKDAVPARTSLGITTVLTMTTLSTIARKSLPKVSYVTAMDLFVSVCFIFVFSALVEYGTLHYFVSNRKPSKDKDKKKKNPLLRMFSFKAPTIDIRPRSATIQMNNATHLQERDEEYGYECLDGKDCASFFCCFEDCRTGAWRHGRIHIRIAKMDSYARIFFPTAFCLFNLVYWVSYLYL
Description: Values are expressed as mean (6-13 different oocytes)±s.e.m. percentage of the potentiation of the control response to GABA (EC20, 2-10 μM).
Complementary DNAs encoding the human α1, β2, and γ2 GABAA receptor subunits were subcloned into the pCDM8 expression vector (Invitrogen, San Diego, Calif.). The cDNAs were purified with the Promega Wizard Plus Miniprep DNA Purification System (Madison, Wis.) and then resuspended in sterile distilled water, divided into portions, and stored at −20° C. until used for injection. Stage V and VI oocytes were manually isolated from sections of Xenopus laevis ovary, placed in modified Barth's saline (MBS) containing 88 mM NaCl, 1 mM KCl, 10 mM Hepes-NaOH buffer (pH 7.5), 0.82 mM MgSO4, 2.4 mM NaHCO3, 0.91 mM CaCl2, and 0.33 mM Ca(NO3)2 and treated with 0.5 mg/mL of collagenase Type IA (Sigma) in collagenase buffer (83 mM NaCl, 2 mM KCl, 1 mM MgCl2, 5 mM Hepes-NaOH buffer, pH 7.5) for 10 min at room temperature, to remove the follicular layer. A mixture of GABAA receptor α1, β2, and γ2 subunit cDNAs (1.5 ng/30 nL) was injected into the oocyte nucleus using a 10 μL glass micropipette (10-15 μm tip diameter). The injected oocytes were cultured at 19° C. in sterile MBS supplemented with streptomycin (10 μg/mL), penicillin (10 U/mL), gentamicin (50 μg/mL), 0.5 mM theophylline, and 2 mM sodium pyruvate. Electrophysiological recordings began approximately 24 h following cDNA injection. Oocytes were placed in a 100-μL rectangular chamber and continuously perfused with MBS solution at a flow rate of 2 mL/min at room temperature. The animal pole of oocytes was impaled with two glass electrodes (0.5 to 3 MΩ) filled with filtered 3 M KCl and the voltage was clamped at −70 mV with an Axoclamp 2-B amplifier (Axon Instruments, Burlingame, Calif.). Currents were continuously recorded on a strip-chart recorder. Resting membrane potential usually ranged from −30 to −50 mV. Drugs were perfused for 20 s (7-10 s were required to reach equilibrium in the recording chamber). Intervals of 5 to 10 min were allowed between drug applications.

porcine liver esterase = assay: Hydrolysis in the presence of porcine liver esterase; assay type: in vitro ADME; conditions: for half-life: pig, porcine liver esterase, read-out: Half-lives at 37° C., Porcine liver esterase (13 U/mL) (converted); for half-life / Cleaved quantitatively to the parent drug in porcine liver esterase solution: 37° C.
From the text: Hydrolysis of compounds 6a-d in the presence of porcine liver esterase was followed using a reported procedure (Bonina F P, Arenare L, Palagiano F, Saija A, Nava F, Trombetta D, De Caprariis P. 1998. Synthesis, stability, and pharmacological evaluation of nipecotic acid prodrugs. J. Pharm. Sci. 8: 561-567.).

[6] = propofol 40 mg/kg i.p. or equimolar dose
[7] = unwashed rat cortical membranes

| SMILES | solubility at 72 h [1] | IC50 (GABAA receptor) | Loss of righting reflex, LRR, Duration (righting reflex) | Loss of righting reflex, LRR, Onset (righting reflex) | Anticonvulsant activity, No. of rats protected/tested [2, 6] | Protection of animals against pentylenetetrazole-induced convulsions [2, 6] | half-life [3] | Cleaved quantitatively to the parent drug in rat serum [3] | IC50 (GABAA receptor; hydrochloride) | half-life [4] | Concentration of maximal effect on GABA-evoked chloride currents [5] | Effect on GABA-evoked chloride currents [5] | half-life (porcine liver esterase; 13 U/mL) | Cleaved quantitatively to the parent drug in porcine liver esterase solution (porcine liver esterase) | Doses at which [35S]TBPS binding is reduced (GABAA receptor; [7]) | half-life at 48 h ([4]; read-out: Half-lives at 37° C., pH 7.4 buffer (stability class)) | Solubility (mg/mL) in deionized water [1] | Effect on [35S]TBPS binding (GABAA receptor; [7]) | Protection of animals against pentylenetetrazole-induced convulsions ([2]; dose equimolar to 40 mg/kg propofol, i.p.) | Half-lives at 37° C., Porcine liver esterase (13 U/mL) (porcine liver esterase; 13 U/mL) |
| --- | --- | --- | --- | --- | --- | --- | --- | --- | --- | --- | --- | --- | --- | --- | --- | --- | --- | --- | --- | --- |
| CC(C)c1cccc(C(C)C)c1O [Compound 1, 2,6-diisopropylphenol, reference compound] | ~0.15 mg/mL (≈ 0.841 mM) | 4.17 µM | 2245 ± 252 s | 114.4 ± 9.5 s | 10/10 | protected completely |  |  |  |  |  |  |  |  |  |  |  |  |  |  |
| CC(C)c1cccc(C(C)C)c1OC(=O)[C@@H]1CCCN1 [Compound 6a, 2.6-diisopropylphenyl pirrolidin-2-carboxylate hydrochloride] | 350 mg/mL |  | 2403 ± 592 s | 162.7 ± 4.3^c,d sec | 10/10 | protected completely | 0.283 h | cleaved quantitatively | 31.7 µM | 6 h | 50 µM | enhanced | 0.283 h | cleaved quantitatively |  |  |  |  |  |  |
| CC(C)c1cccc(C(C)C)c1OC(=O)C1CCCNC1 (racemic) [Compound 6c] | 525 mg/mL (≈ 1810 mM) | 152 µM |  |  |  |  | 6 h | not |  |  |  |  | 3 h | not | higher than 100 μM | > 48 h |  |  |  |  |
| CC(C)c1cccc(C(C)C)c1OC(=O)C1CCNCC1 [Compound 6d, propofol isonipecotate] |  |  |  |  | 6/10 |  |  |  |  |  | 100 µM | diminished |  | not |  |  | 29.7 mg/mL (≈ 103 mM) | increase of [^35S]TBPS binding | 60% | 45 h |
| CC(C)c1cccc(C(C)C)c1OC(=O)C1CCCCN1 (racemic) [Compound 6b, propofol pipecolinate] | 13.4 mg/mL (≈ 46.3 mM) | 39.5 µM |  |  |  |  | 0.0417 h | cleaved quantitatively |  | 7 h |  |  | 0.217 h | cleaved quantitatively |  |  |  |  |  |  |

From US20050267169A1, “Watersoluble prodrugs of propofol” (priority 2002, published 2005)
